Measurements published in patent US8901037B2, “Composition having a germination-preventing activity, processes for obtaining said compositions and use thereof” (Isagro S.p.A., priority 2006, dated 2014).

Experiments:
[1] = cited from earlier work
weeds = assay: germination-preventing action in treated soil; assay type: in vivo; conditions: minimum amounts of 4 g per square meter of soil

## CN=C=S [methyl isothiocyanate, reference compound]
[1]
  vapour pressure at 25° C.: 19 mmHg

## C=CCN=C=S [allyl isothiocyanate, Allyl isothiocyanate]
weeds
  germination-preventing action: marked germination-preventing action
[1]
  vapour pressure at 25° C.: 5 mmHg
